In patent US20100075942A1, “N-PHENYL-4-PYRIDIN-2-YL-BENZAMIDE DERIVATIVES AS HISTONE DEACYLASE (HDAC) INHIBITORS FOR THE TREATMENT OF CANCER” (ASTRAZENECA AB, priority 2005, published 2010):

What was measured:
[1] = tested on: HCT116 cells; experiment: In vitro assay of inhibition of proliferation in whole cells, MTS (Test (b)); format: cell-based; settings: Homo sapiens, HCT-116, 72 hours treatment
Description: Inhibition of proliferation in whole cells was assayed using the Promega cell titer 96 aqueous proliferation assay (Promega #G5421). HCT116 cells were seeded in 96 well plates at 1×10^3 cells/well, and allowed to adhere overnight. They were treated with inhibitors for 72 hours. 20 μl of the tetrazolium dye MTS was added to each well and the plates were reincubated for 3 hours. Absorbance was then measured on a 96 well plate reader at […]. The IC50 values for HDAC inhibitors were determined by performing dose response curves with individual compounds and determining the concentration of inhibitor producing fifty percent decrease in maximal signal (diluent control). • (c) In Vitro Enzyme Assay of Histone Deacetylase Activity in Whole Cells

[2] = biological target: T1, recombinant human HDAC1 (Homo sapiens, UniProt Q13547); experiment: In vitro enzyme assay of recombinant HDAC1 (Test (a)); format: biochemical; settings: recombinant human HDAC1 produced in Hi5 insect cells; acetylated histone H4 peptide, Fluor de Lys
T1 construct: FLAG (C); made in house; host or cells: Hi5 insect cells
T1 sequence (Q13547 whole entry): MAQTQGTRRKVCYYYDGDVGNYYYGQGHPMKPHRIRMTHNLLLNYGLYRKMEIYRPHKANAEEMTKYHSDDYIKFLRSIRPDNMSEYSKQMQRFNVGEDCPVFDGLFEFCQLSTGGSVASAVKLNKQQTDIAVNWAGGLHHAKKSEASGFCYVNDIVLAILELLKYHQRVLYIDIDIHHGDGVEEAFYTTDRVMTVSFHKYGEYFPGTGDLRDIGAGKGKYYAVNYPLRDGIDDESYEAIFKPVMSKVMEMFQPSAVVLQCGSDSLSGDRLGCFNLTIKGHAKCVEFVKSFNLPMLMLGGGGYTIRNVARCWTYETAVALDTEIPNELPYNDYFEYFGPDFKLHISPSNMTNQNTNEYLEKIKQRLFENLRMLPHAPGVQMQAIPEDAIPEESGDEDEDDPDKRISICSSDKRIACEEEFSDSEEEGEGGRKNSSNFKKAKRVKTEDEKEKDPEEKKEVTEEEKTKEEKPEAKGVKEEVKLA
Description: HDAC inhibitors were screened against recombinant human HDAC1 produced in Hi5 insect cells. The enzyme was cloned with a FLAG tag at the C-terminal of the gene and affinity purified using Anti-FLAG M2 agarose from SIGMA (A2220).
The deacetylase assays were carried out in a 50 μl reaction. HDAC1 (75 ng of enzyme) diluted in 15 μl of reaction buffer (25 mM TrisHC1 (pH 8), 137 mM NaCl, 2.7 mM KCl, 1 mM MgCl2) was mixed with either buffer alone (10 μl) or buffer containing compound (10 μl for 30 minutes at ambient temperature. 25 μM acetylated histone H4 peptide (KI 174 Biomol) diluted in 25 μl of buffer was then added to the reaction and incubated for one hour at ambient temperature. The reaction was stopped by addition of an equal volume (50 μl) Fluor de Lys developer (Biomol) containing Trichostatin A at 2 μM. The reaction was allowed to develop for 30 minutes at ambient temperature and then fluorescence measured at an excitation wavelength of 360 nm and an emission wavelength of 465 nm. IC50 values for HDAC enzyme inhibitors were determined by performing dose response curves with individual compounds and determining the concentration of inhibitor producing fifty percent decrease in the maximal signal (diluent control). • (b) In Vitro Assay of Inhibition of Proliferation in Whole Cells

Row | Structure (SMILES) | IC50 [1] [µM] | IC50 [2] [µM]
1 | CCCCNCc1cnc(-c2ccc(C(=O)Nc3ccccc3N)cc2)c(Cl)c1 [Example 1, N-(2-Aminophenyl)-4-{5-[(butylamino)methyl]-3-chloropyridin-2-yl}benzamide] | 0.16 | 0.009
2 | Nc1ccccc1NC(=O)c1ccc(-c2ncc(CNCCN3CCCC3)cc2Cl)cc1 [2 (8), N-(2-aminophenyl)-4-(3-chloro-5-{[(2-pyrrolidin-1-ylethyl)amino]methyl}pyridin-2-yl)benzamide] | 0.4 | 0.016
3 | Nc1ccccc1NC(=O)c1ccc(-c2ncc(C(=O)NCCN3CCCC3)cc2Cl)cc1 [5 (1), N-(2-aminophenyl)-4-[3-chloro-5-(N-2-[pyrrolidin-1-yl]ethyl-carbamoyl)-pyridin-2-yl]benzamide] | 0.22 | 0.009
